The values below come from patent US20230174608A1, “Polypeptide Derivative Having Dual Receptor Agonistic Action and Use Thereof” (TIANJIN INSTITUTE OF PHARMACEUTICAL RESEARCH CO., LTD., priority 2020, published 2023).

Experiment [1] concerns glucose loaded normal mice. The experiment is described as follows: Glucose loading test on normal mice after single administration. Conditions: for Blood glucose reduction rate (%) / Blood glucose level after glucose loading: 30 nmol/kg single dose; for Blood glucose reduction rate (%): after glucose loading, versus model control group; for Blood glucose level after glucose loading: glucose 2.5 g/kg intragastric 60 min after administration, measured 30 min after loading; for Blood glucose level after glucose loading / Fasting blood glucose level: n=5; for Fasting blood glucose level: normal mice fasted 6 h, 30 nmol/kg group. Type of experiment: in vivo, Kunming mice. How it is done: The hypoglycemic action of each compound of Example 1 was assessed by a glucose loading test on normal mice after single administration.
Method: Kunming mice (male, with a weight of 20-22 g) were acclimated in a barrier environment animal room for 3 days, divided into a blank control group, a model control group, a positive control group, and test compound groups, 5 mice in each group, and fasted for 6 h. Saline was administered to each mouse in the blank control group and the model control group, the compounds and a positive control drug were respectively administered to each mouse in the test compound groups and the positive control group at a dose of 30 nmol/kg, and the positive control drug was semaglutide. 60 min after administration, glucose was intragastrically administered to each mouse in the model control group, the positive control group, and the test compound groups at a dose of 2.5 g/kg (0.01 mL·g^−1 weight), distilled water was administered to each mouse in the blank control group, and blood glucose levels were determined 30 min after glucose loading.

A further experiment addresses T1, GLP-1R (Homo sapiens, UniProt P43220).
T1 construct: expressed in transfected cells
The experiment is described as follows: GLP-1 receptor-mediated cAMP production in vitro. Type of experiment: cell-based. To be noted: HEK293 cell line stably expressing GLP-1R. How it is done: (§1) HEK293 cell line stably expressing GLP-1R or GCGR was used for screening GLP-1R and GCGR agonist.
(§2) Preparation of test sample: each compound was prepared into 100 μM stock solution, and then gradually diluted to working concentrations of 1 μM, 100 nM, 10 nM, 1 nM, 10^−1 nM, 10^−2 nM, 10^−3 nM, and H2O.
(§3) 1) Each compound to be tested was mixed with a serum-free medium (containing 0.1% BSA and 0.5 mM IBMX) to obtain a solution at a concentration 2 times the working concentration.
(§4) 2) The cells were digested, suspended in a serum-free medium (containing 0.5 mM IBMX), counted, and placed in a 384-well plate at a density of 1,000 cells/5 μL/well, then 5 μL of the testing compound was added, and the plate was placed in dark for reaction for 30 min.
(§5) 3) After the reaction was completed, a substrate for detecting cAMP was added, and the plate was placed in dark for reaction at the room temperature for 60 min.
(§6) 4) After the reaction was completed, the plate was placed on the Envision2104 multifunctional microplate reader for detection, and the ratio of optical density (OD) values at 665 nm and 615 nm were read out.
On the technique in general: Changes in cAMP serve as a functional read-out for many G protein-coupled receptors.

The target of another experiment is T2, GCGR (Homo sapiens, UniProt P47871).
T2 construct: expressed in transfected cells
The experiment is described as follows: GC receptor-mediated cAMP production in vitro. Type of experiment: cell-based. Conditions: HEK293 cell line stably expressing GCGR. How it is done: as §1, §2, §3, §4, §5, §6

*1 amine or outer side, *2 acyl side, *3 side chain or, on linkers, in order; H or OH if unused. Where a SMILES comes first, the peptide text is derived from it. Side-chain parts run from the residue outwards. [ ]: non-standard residue; d: D form. The star is where a group is joined. γGlu = O=C(O)[C@H](CCC(=O)[*:2])N[*:1]; Palmitoyl = CCCCCCCCCCCCCCCC(=O)*; AEEA = NCCOCCOCC(=O)O; Aib = CC(C)(N)C(=O)O

T2 sequence (P47871 26-477, species assumed): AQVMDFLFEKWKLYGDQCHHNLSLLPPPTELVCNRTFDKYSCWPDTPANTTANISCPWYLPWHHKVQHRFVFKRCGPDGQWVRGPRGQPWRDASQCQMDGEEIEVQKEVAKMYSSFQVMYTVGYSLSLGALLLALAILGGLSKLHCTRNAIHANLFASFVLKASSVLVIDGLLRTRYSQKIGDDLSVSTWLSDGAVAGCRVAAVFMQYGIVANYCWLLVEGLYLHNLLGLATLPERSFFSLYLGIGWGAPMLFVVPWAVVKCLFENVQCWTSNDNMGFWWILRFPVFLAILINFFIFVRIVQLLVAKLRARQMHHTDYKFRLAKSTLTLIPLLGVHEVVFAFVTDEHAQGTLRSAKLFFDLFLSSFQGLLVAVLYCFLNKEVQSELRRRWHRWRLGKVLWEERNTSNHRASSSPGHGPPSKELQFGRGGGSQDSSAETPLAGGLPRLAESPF
T1 sequence (P43220 24-463, species assumed): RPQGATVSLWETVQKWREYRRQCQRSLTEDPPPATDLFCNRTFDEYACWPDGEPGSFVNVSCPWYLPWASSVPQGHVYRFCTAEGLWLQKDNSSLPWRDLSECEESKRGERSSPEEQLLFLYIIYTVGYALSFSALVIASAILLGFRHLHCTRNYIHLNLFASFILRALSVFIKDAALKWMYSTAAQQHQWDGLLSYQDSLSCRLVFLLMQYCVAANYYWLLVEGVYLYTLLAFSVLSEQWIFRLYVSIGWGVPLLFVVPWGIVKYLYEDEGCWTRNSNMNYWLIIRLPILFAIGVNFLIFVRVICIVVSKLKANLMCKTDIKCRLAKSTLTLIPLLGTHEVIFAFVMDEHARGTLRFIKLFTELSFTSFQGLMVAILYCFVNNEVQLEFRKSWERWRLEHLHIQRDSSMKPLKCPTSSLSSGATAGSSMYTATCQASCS

Consider `CCCCCCCCCCCCCCCC(=O)N[C@@H](CCC(=O)NCCCC[C@H](NC(=O)[C@H](C)NC(=O)[C@H](C)NC(=O)[C@H](CCCNC(=N)N)NC(=O)[C@H](CCC(=O)O)NC(=O)[C@H](CCC(=O)O)NC(=O)[C@H](CC(C)C)NC(=O)[C@H](Cc1ccc(O)cc1)NC(=O)[C@H](CCCCN)NC(=O)[C@H](CO)NC(=O)[C@H](Cc1ccc(O)cc1)NC(=O)[C@H](CC(=O)O)NC(=O)[C@H](CO)NC(=O)[C@@H](NC(=O)[C@H](Cc1ccccc1)NC(=O)[C@@H](NC(=O)CNC(=O)[C@H](CCC(N)=O)NC(=O)C(C)(C)NC(=O)[C@@H](N)Cc1c[nH]cn1)[C@@H](C)O)[C@@H](C)O)C(=O)N[C@@H](CCC(=O)O)C(=O)N[C@@H](Cc1ccccc1)C(=O)N[C@H](C(=O)N[C@@H](C)C(=O)N[C@@H](Cc1c[nH]c2ccccc12)C(=O)N[C@@H](CC(C)C)C(=O)N[C@@H](CCC(=O)O)C(=O)N[C@@H](CO)C(=O)NCC(=O)NCC(N)=O)[C@@H](C)CC)C(=O)O` [dgc008] (HELM PEPTIDE1{H.[Aib].Q.G.T.F.T.S.D.Y.S.K.Y.L.E.E.R.A.A.K.E.F.I.A.W.L.E.S.G.G.[am]}|PEPTIDE2{[CCCCCCCCCCCCCCCC(=O)[*:2]].[gGlu]}$PEPTIDE1,PEPTIDE2,20:R3-2:R2$$$V2.0; N-terminus assumed), for which, in experiment [1], the “Blood glucose reduction rate (%)” value was determined as 48.70%, the “Blood glucose level after glucose loading” value was 8.72 ± 1.99 mmol/L and the “Fasting blood glucose level” value is 3.64 ± 1.00 mmol/L. For the same compound, on GLP-1R, the EC50 (commonly the concentration needed to bring the measured effect to its halfway point) is 0.742 nM. Also, the EC50 on GCGR turned out to be 2.03 nM.
Take `CCCCCCCCCCCCCCCC(=O)N[C@@H](CCC(=O)N[C@@H](CCC(=O)NCCCC[C@H](NC(=O)[C@H](C)NC(=O)[C@H](C)NC(=O)[C@H](CCCNC(=N)N)NC(=O)[C@H](CCC(=O)O)NC(=O)[C@H](CC(=O)O)NC(=O)[C@H](CC(C)C)NC(=O)[C@H](Cc1ccc(O)cc1)NC(=O)[C@H](CCCCN)NC(=O)[C@H](CO)NC(=O)[C@H](Cc1ccc(O)cc1)NC(=O)[C@H](CC(=O)O)NC(=O)[C@H](CO)NC(=O)[C@@H](NC(=O)[C@H](Cc1ccccc1)NC(=O)[C@@H](NC(=O)CNC(=O)[C@H](CCC(N)=O)NC(=O)C(C)(C)NC(=O)[C@@H](N)Cc1c[nH]cn1)[C@@H](C)O)[C@@H](C)O)C(=O)N[C@@H](CCC(=O)O)C(=O)N[C@@H](Cc1ccccc1)C(=O)N[C@H](C(=O)N[C@@H](C)C(=O)N[C@@H](Cc1c[nH]c2ccccc12)C(=O)N[C@@H](CC(C)C)C(=O)N[C@@H](CCC(=O)O)C(=O)NCC(=O)NCC(N)=O)[C@@H](C)CC)C(=O)O)C(=O)O` [dgc013] (HELM PEPTIDE1{H.[Aib].Q.G.T.F.T.S.D.Y.S.K.Y.L.D.E.R.A.A.K.E.F.I.A.W.L.E.G.G.[am]}|PEPTIDE2{[CCCCCCCCCCCCCCCC(=O)[*:2]].[gGlu].[gGlu]}$PEPTIDE1,PEPTIDE2,20:R3-3:R2$$$V2.0; N-terminus assumed): in experiment [1], the “Blood glucose reduction rate (%)” value is 45.53%, the “Blood glucose level after glucose loading” value is 9.26 ± 1.76 mmol/L and the “Fasting blood glucose level” value amounted to 3.92 ± 0.51 mmol/L. The EC50 on GLP-1R was determined as 0.319 nM. For the same compound, at GCGR, a half-maximal response (EC50) required 1.99 nM.
Regarding `CCCCCCCCCCCCCCCC(=O)N[C@@H](CCC(=O)NCCCC[C@H](NC(=O)[C@H](C)NC(=O)[C@H](C)NC(=O)[C@H](CCCNC(=N)N)NC(=O)[C@H](CCC(=O)O)NC(=O)[C@H](CCC(=O)O)NC(=O)[C@H](CC(C)C)NC(=O)[C@H](Cc1ccc(O)cc1)NC(=O)[C@H](CCCCN)NC(=O)[C@H](CO)NC(=O)[C@H](Cc1ccc(O)cc1)NC(=O)[C@H](CC(=O)O)NC(=O)[C@H](CO)NC(=O)[C@@H](NC(=O)[C@H](Cc1ccccc1)NC(=O)[C@@H](NC(=O)CNC(=O)[C@H](CCC(N)=O)NC(=O)C(C)(C)NC(=O)[C@@H](N)Cc1c[nH]cn1)[C@@H](C)O)[C@@H](C)O)C(=O)N[C@@H](CCC(=O)O)C(=O)N[C@@H](Cc1ccccc1)C(=O)N[C@H](C(=O)N[C@@H](C)C(=O)N[C@@H](Cc1c[nH]c2ccccc12)C(=O)N[C@@H](CC(C)C)C(=O)N[C@@H](CCC(=O)O)C(=O)NCC(=O)NCC(N)=O)[C@@H](C)CC)C(=O)O` [dgc015] (HELM PEPTIDE1{H.[Aib].Q.G.T.F.T.S.D.Y.S.K.Y.L.E.E.R.A.A.K.E.F.I.A.W.L.E.G.G.[am]}|PEPTIDE2{[CCCCCCCCCCCCCCCC(=O)[*:2]].[gGlu]}$PEPTIDE1,PEPTIDE2,20:R3-2:R2$$$V2.0; N-terminus assumed), the EC50 at GLP-1R came out at 0.899 nM; on GCGR, 1.53 nM.
In the case of `CCCCCCCCCCCCCCCC(=O)N[C@@H](CCC(=O)NCCCC[C@H](NC(=O)[C@H](C)NC(=O)[C@H](C)NC(=O)[C@H](CCCNC(=N)N)NC(=O)[C@H](CCC(=O)O)NC(=O)[C@H](CC(=O)O)NC(=O)[C@H](CC(C)C)NC(=O)[C@H](Cc1ccc(O)cc1)NC(=O)[C@H](CCCCN)NC(=O)[C@H](CO)NC(=O)[C@H](Cc1ccc(O)cc1)NC(=O)[C@H](CC(=O)O)NC(=O)[C@H](CO)NC(=O)[C@@H](NC(=O)[C@H](Cc1ccccc1)NC(=O)[C@@H](NC(=O)CNC(=O)[C@H](CCC(N)=O)NC(=O)C(C)(C)NC(=O)[C@@H](N)Cc1c[nH]cn1)[C@@H](C)O)[C@@H](C)O)C(=O)N[C@@H](CCC(=O)O)C(=O)N[C@@H](Cc1ccccc1)C(=O)N[C@H](C(=O)N[C@@H](C)C(=O)N[C@@H](Cc1c[nH]c2ccccc12)C(=O)N[C@@H](CC(C)C)C(=O)N[C@@H](CCC(=O)O)C(=O)NCC(=O)N[C@@H](CCC(=O)O)C(=O)NCC(N)=O)[C@@H](C)CC)C(=O)O` [dgc018] (HELM PEPTIDE1{H.[Aib].Q.G.T.F.T.S.D.Y.S.K.Y.L.D.E.R.A.A.K.E.F.I.A.W.L.E.G.E.G.[am]}|PEPTIDE2{[CCCCCCCCCCCCCCCC(=O)[*:2]].[gGlu]}$PEPTIDE1,PEPTIDE2,20:R3-2:R2$$$V2.0; N-terminus assumed), the concentration giving a half-maximal response (EC50) on GLP-1R stood at 0.401 nM; at GCGR it was 1.3 nM.
For `CCCCCCCCCCCCCCCC(=O)N[C@@H](CCC(=O)NCCCC[C@H](NC(=O)[C@H](C)NC(=O)[C@H](C)NC(=O)[C@H](CCCNC(=N)N)NC(=O)[C@H](CCC(=O)O)NC(=O)[C@H](CCC(=O)O)NC(=O)[C@H](CC(C)C)NC(=O)[C@H](Cc1ccc(O)cc1)NC(=O)[C@H](CCCCN)NC(=O)[C@H](CO)NC(=O)[C@H](Cc1ccc(O)cc1)NC(=O)[C@H](CC(=O)O)NC(=O)[C@H](CO)NC(=O)[C@@H](NC(=O)[C@H](Cc1ccccc1)NC(=O)[C@@H](NC(=O)CNC(=O)[C@H](CCC(N)=O)NC(=O)C(C)(C)NC(=O)[C@@H](N)Cc1c[nH]cn1)[C@@H](C)O)[C@@H](C)O)C(=O)N[C@@H](CCC(=O)O)C(=O)N[C@@H](Cc1ccccc1)C(=O)N[C@H](C(=O)N[C@@H](C)C(=O)N[C@@H](Cc1c[nH]c2ccccc12)C(=O)N[C@@H](CC(C)C)C(=O)N[C@@H](CCC(=O)O)C(=O)NCC(=O)N[C@@H](CCC(=O)O)C(=O)NCC(N)=O)[C@@H](C)CC)C(=O)O` [dgc019] (HELM PEPTIDE1{H.[Aib].Q.G.T.F.T.S.D.Y.S.K.Y.L.E.E.R.A.A.K.E.F.I.A.W.L.E.G.E.G.[am]}|PEPTIDE2{[CCCCCCCCCCCCCCCC(=O)[*:2]].[gGlu]}$PEPTIDE1,PEPTIDE2,20:R3-2:R2$$$V2.0; N-terminus assumed) the same measures were 0.792 nM and 1.83 nM.
For `CCCCCCCCCCCCCCCC(=O)N[C@@H](CCC(=O)NCCOCCOCC(=O)NCCOCCOCC(=O)NCCCC[C@H](NC(=O)[C@H](C)NC(=O)[C@H](C)NC(=O)[C@H](CCCNC(=N)N)NC(=O)[C@H](CCC(=O)O)NC(=O)[C@H](CCC(=O)O)NC(=O)[C@H](CC(C)C)NC(=O)[C@H](Cc1ccc(O)cc1)NC(=O)[C@H](CCCCN)NC(=O)[C@H](CO)NC(=O)[C@H](Cc1ccc(O)cc1)NC(=O)[C@H](CC(=O)O)NC(=O)[C@H](CO)NC(=O)[C@@H](NC(=O)[C@H](Cc1ccccc1)NC(=O)[C@@H](NC(=O)CNC(=O)[C@H](CCC(N)=O)NC(=O)C(C)(C)NC(=O)[C@@H](N)Cc1c[nH]cn1)[C@@H](C)O)[C@@H](C)O)C(=O)N[C@@H](CCC(=O)O)C(=O)N[C@@H](Cc1ccccc1)C(=O)N[C@H](C(=O)N[C@@H](C)C(=O)N[C@@H](Cc1c[nH]c2ccccc12)C(=O)N[C@@H](CC(C)C)C(=O)N[C@@H](CCC(=O)O)C(=O)NCC(=O)N[C@@H](CCC(=O)O)C(=O)NCC(N)=O)[C@@H](C)CC)C(=O)O` [dgc021] (H-H[Aib]QGTFTSDYSKYLEERAAK([AEEA-AEEA-γGlu-Palmitoyl])EFIAWLEGEG-NH2; N-terminus assumed) the same measures were 0.382 nM and 3.93 nM.
